# Data published in US9957271B2, “Substituted bicyclic aza-heterocycles and analogues as sirtuin modulators” (GlaxoSmithKline, LLC, priority 2012, dated 2018).
# What was measured:
# SIRT1 [1] = target: T1, SIRT1 (Homo sapiens, UniProt Q96EB6); assay: Trp mass spectrometry assay of SIRT1 activity; assay type: biochemical; conditions: for Emax: read-out: Trp % Fold Act
# T1 sequence (Q96EB6 1-747): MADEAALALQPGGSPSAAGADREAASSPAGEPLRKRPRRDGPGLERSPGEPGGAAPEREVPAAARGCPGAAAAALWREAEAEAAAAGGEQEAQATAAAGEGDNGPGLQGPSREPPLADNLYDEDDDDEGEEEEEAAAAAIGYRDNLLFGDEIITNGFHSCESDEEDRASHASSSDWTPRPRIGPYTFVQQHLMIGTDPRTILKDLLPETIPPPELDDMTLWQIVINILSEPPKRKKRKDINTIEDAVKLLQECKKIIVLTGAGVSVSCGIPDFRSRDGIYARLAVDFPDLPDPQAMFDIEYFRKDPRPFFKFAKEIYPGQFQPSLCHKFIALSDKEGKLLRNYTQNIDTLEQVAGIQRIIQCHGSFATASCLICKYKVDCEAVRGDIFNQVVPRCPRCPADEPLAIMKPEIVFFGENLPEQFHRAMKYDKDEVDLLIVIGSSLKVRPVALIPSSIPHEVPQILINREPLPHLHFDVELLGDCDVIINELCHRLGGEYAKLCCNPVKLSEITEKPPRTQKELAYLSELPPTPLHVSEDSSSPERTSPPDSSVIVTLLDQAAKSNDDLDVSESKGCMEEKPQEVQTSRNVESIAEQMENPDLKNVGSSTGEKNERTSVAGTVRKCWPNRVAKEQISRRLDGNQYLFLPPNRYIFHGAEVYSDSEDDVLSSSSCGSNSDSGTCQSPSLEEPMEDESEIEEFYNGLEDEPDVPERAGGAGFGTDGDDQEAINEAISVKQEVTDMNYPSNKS
# How it was run: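 His-tagged SIRT1 expressed in E. coli BL21(DE3), 10 nM, incubated 25 min at 25° C. with 0.5 μM Ac-RHKK(Ac)W-NH2 peptide and 120 μM βNAD+ in 50 mM HEPES pH 7.5, […], 1 mM DTT, 0.05% BSA; formic acid stop. OAADPR or deacetylated peptide measured by mass spectrometry; EC1.5 and percent maximum activation versus DMSO control.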
# SIRT1 [2] = target: T1, SIRT1; assay: TAMRA based mass spectrometry assay of SIRT1 activity; assay type: biochemical; conditions: for Emax: read-out: TAMRA % Fold Act
# How it was run: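 Recombinant N-terminal His-tagged human SIRT1 (10 nM, E. coli) incubated 25 min at 25 °C with 0.5 μM 5TMR-labelled p53-derived acetyl-peptide and 120 μM βNAD+ in Tris-acetate pH 8 buffer with DTT and 0.05% BSA, compound at varying concentrations. Stopped with formic acid; deacetylated peptide or OAADPR measured by mass spectrometry relative to DMSO controls.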
# [3] = Trp assay, concentration giving 150% activation of SIRT1
# [4] = Trp assay, percent maximum fold activation
# [5] = TAMRA assay, concentration giving 150% activation of SIRT1
# [6] = TAMRA assay, percent maximum fold activation
# [7] = Trp peptide substrate, concentration giving 150% activation of SIRT1
# [8] = Trp peptide substrate, percent maximum fold activation
# [9] = TAMRA peptide substrate, concentration giving 150% activation of SIRT1
# [10] = TAMRA peptide substrate, percent maximum fold activation
# [11] = concentration of test compound giving 150% activation of SIRT1, Trp peptide substrate
# [12] = percent maximum fold activation of SIRT1, Trp peptide substrate
# [13] = concentration of test compound giving 150% activation of SIRT1, TAMRA peptide substrate
# [14] = percent maximum fold activation of SIRT1, TAMRA peptide substrate
Trp EC1.5 (μM) (SIRT1 [1]; [3]),Emax (SIRT1 [1]; [4]),TAMRA EC1.5 (μM) (SIRT1 [2]; [5]),Emax (SIRT1 [2]; [6]),Trp EC1.5 (μM) (SIRT1 [1]; [11]),Emax (SIRT1 [1]; [12]),TAMRA EC1.5 (μM) (SIRT1 [2]; [13]),Emax (SIRT1 [2]; [14]),SMILES,further results
A (EC1.5<1 μM),< 350%,A (EC1.5<1 μM),≥ 350%,,,,,O=C(Nc1cccc(N2CCOCC2)n1)c1cnc2ccc(-c3cccc(OCC(O)CO)c3)nn12 (centres unmarked) [Compound 372],
B (EC1.5 1-25 μM),< 350%,B (EC1.5 1-25 μM),≥ 350%,,,,,Cc1ccc(NC(=O)c2c(C)nc3ccc(-c4ccccc4C)nn23)nn1 [Compound 694],
B (EC1.5 1-25 μM),< 350%,A (EC1.5<1 μM),≥ 350%,,,,,CCOc1ccc(NC(=O)c2cnn3ccc(-c4ccccc4OC(F)(F)F)nc23)nn1 [Compound 636],
A (EC1.5<1 μM),< 350%,A (EC1.5<1 μM),≥ 350%,,,,,Cc1cncc(NC(=O)c2c(C)nn3ccc(-c4ccccc4Br)nc23)c1 [Compound 827],

# The remaining lines, values behind:
SMILES,Trp EC1.5 (μM) (SIRT1 [1]; [3]),Emax (SIRT1 [1]; [4]),TAMRA EC1.5 (μM) (SIRT1 [2]; [5]),Emax (SIRT1 [2]; [6]),Trp EC1.5 (μM) (SIRT1 [1]; [11]),Emax (SIRT1 [1]; [12]),TAMRA EC1.5 (μM) (SIRT1 [2]; [13]),Emax (SIRT1 [2]; [14]),further results
Cc1cc(NC(=O)c2cnc3ccc(-c4ccccc4C(F)(F)F)nn23)nc(C)n1 [Compound 238],C (EC1.5>25 μM),< 350%,A (EC1.5<1 μM),≥ 350%,,,,,
O=C(Nc1ccc(F)cn1)c1cnn2ccc(-c3ccccc3C(F)(F)F)nc12 [Compound 518],,,,,,,,,Trp EC1.5 (SIRT1 [1]; [7]): B (EC1.5 1-25 μM); Emax (SIRT1 [1]; [8]): < 350%; TAMRA EC1.5 (SIRT1 [2]; [9]): A (EC1.5<1 μM); Emax (SIRT1 [2]; [10]): ≥ 350%
Cc1cc2ncc(NC(=O)c3ccncn3)n2nc1-c1ccccc1C(F)(F)F [Compound 443],,,,,,,,,Trp EC1.5 (SIRT1 [1]; [7]): C (EC1.5>25 μM); Emax (SIRT1 [1]; [8]): < 350%; TAMRA EC1.5 (SIRT1 [2]; [9]): A (EC1.5<1 μM); Emax (SIRT1 [2]; [10]): ≥ 350%
Cc1cc(C)c(NC(=O)c2cnc3ccc(-c4ccccc4C(F)(F)F)nn23)cn1 [Compound 125],,,,,B (EC1.5 1-25 μM),< 350%,B (EC1.5 1-25 μM),< 350%,
COc1cc(OC)nc(NC(=O)c2cnc3ccc(-c4ccccc4C(F)(F)F)nn23)n1 [Compound 198],B (EC1.5 1-25 μM),< 350%,A (EC1.5<1 μM),≥ 350%,,,,,
O=C(Nc1ccnc(CN2CCOCC2)n1)c1cnc2ccc(-c3ccccc3C(F)(F)F)nn12 [Compound 23],,,,,B (EC1.5 1-25 μM),< 350%,B (EC1.5 1-25 μM),≥ 350%,
O=C(Nc1ccccn1)c1cnc2ccc(-c3c(F)cccc3F)nn12 [Compound 167],,,,,C (EC1.5>25 μM),< 350%,C (EC1.5>25 μM),< 350%,
CN(C)CCn1cc(NC(=O)c2cnc3ccc(-c4ccccc4C(F)(F)F)nn23)cn1 [Compound 155],,,,,C (EC1.5>25 μM),< 350%,B (EC1.5 1-25 μM),< 350%,
O=C(Nc1cccnc1)c1cnc2ccc(-c3cccc(C(F)(F)F)c3)nn12 [Compound 2],,,,,A (EC1.5<1 μM),≥ 350%,B (EC1.5 1-25 μM),< 350%,
O=C(Nc1ccncc1)c1cnc2ccc(-c3cccc(Cl)c3F)nn12 [Compound 141],,,,,C (EC1.5>25 μM),< 350%,C (EC1.5>25 μM),< 350%,
Cc1nc2c(C)cc(-c3ccccc3OC(F)(F)F)nn2c1C(=O)Nc1cccc(N2CC3(COC3)C2)n1 [Compound 545],,,,,,,,,Trp EC1.5 (SIRT1 [1]; [7]): A (EC1.5<1 μM); Emax (SIRT1 [1]; [8]): ≥ 350%; TAMRA EC1.5 (SIRT1 [2]; [9]): A (EC1.5<1 μM); Emax (SIRT1 [2]; [10]): ≥ 350%
Cc1cc(C)nc(C(=O)Nc2cnc3ccc(-c4ccccc4C(F)(F)F)nn23)n1 [Compound 221],B (EC1.5 1-25 μM),< 350%,A (EC1.5<1 μM),≥ 350%,,,,,
Cc1cccc(NC(=O)c2cnc3ccc(-c4ccccc4OCC(O)CO)nn23)n1 (centres unmarked) [Compound 369],B (EC1.5 1-25 μM),≥ 350%,A (EC1.5<1 μM),≥ 350%,,,,,
